Laboratory results taken from patent publication US9862684B2, “Modulation of K2P channels” (The Regents of the University of California, priority 2013, dated 2018).

Legend:
TREK-1 = target: T1, TREK-1 (Mus musculus, UniProt P97438); experiment: Modulation of TREK-1 by select compounds (agonist activity), Table 3; assay type: cell-based, Murine; conditions: for EC50: agonist activity on TREK-1
T1 construct: expressed in transfected cells
T1 sequence (P97438 1-411 isoform P97438-2): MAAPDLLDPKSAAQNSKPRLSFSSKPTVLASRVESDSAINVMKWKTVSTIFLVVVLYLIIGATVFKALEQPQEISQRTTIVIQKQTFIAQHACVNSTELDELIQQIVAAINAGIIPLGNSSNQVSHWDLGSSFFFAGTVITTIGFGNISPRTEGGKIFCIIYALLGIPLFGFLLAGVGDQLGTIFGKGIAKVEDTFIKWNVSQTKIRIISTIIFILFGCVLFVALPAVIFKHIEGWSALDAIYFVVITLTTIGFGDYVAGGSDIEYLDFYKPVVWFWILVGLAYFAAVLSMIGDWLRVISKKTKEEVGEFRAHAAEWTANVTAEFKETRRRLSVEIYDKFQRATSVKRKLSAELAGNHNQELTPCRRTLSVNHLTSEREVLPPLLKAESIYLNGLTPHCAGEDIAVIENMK
Procedure: (§1) Two-electrode voltage clamp recordings were performed from defolliculated stage V-VI Xenopus oocytes 24-48 hours after injection with 0.015-6.0 ng cRNA, using microelectrodes (0.3-3.0 MΩ) filled with 3M KCl. […] Recording solutions (mM): 2K (96 NaCl, 2 KCl, 1.8 CaCl2, 2 MgCl2), 90K (90 KCl, 8 NaCl, 1.8 CaCl2, 2 MgCl2), were buffered 5 mM HEPES pH 7.4. For K2P recordings, currents we elicited by a 1 second long ramp from −150 to +50 mV from a holding potential of −80 mV (2K), or −100 to +50 mV from a holding potential of 0 mV (90K). For KCNQ2 recordings, currents were elicited by a step protocol from −120 to 60 mV, in 20 mV increments, from a holding potential of −80 mV. […] Currents were elicited by a 1 second long ramp from −150 to +50 mV from a holding potential of −80 mV.

K2P2.1 (TREK-1) = target: T2, K2P2.1 (TREK-1) (Mus musculus, UniProt P97438); experiment: Two-electrode voltage clamp of Xenopus oocytes expressing K2P2.1 (TREK-1); assay type: cell-based, Murine; conditions: Xenopus oocytes; for effect on K2P2.1 (TREK-1) function / activity (in words): two-electrode voltage clamp
T2 construct: expressed in transfected cells; host or cells: Xenopus oocytes (cRNA injection, pGEMHE/pMO)
T2 sequence (P97438 1-411 isoform P97438-2): T1 sequence (P97438 1-411 isoform P97438-2)
Procedure: as §1

SMILES | EC50 (TREK-1) [µM] | comments (comparison with ML67-33 / ML67-142, dose-response remark) (TREK-1) | % activity at 50 μM (TREK-1) [%] | also measured
O=C(O)CCN1c2ccc(Cl)cc2C2(CCCCC2)c2cc(Cl)ccc21 [ML67-141, 3-(2,7-dichlorospiro [acridine-9,1′-cyclohexane]-10-yl)propanoic acid] | 8.6 to 38.5 | Better than ML67-33; not better than (ML67-142) |  | 
CC1(C)c2ccccc2N(CCc2nnn[nH]2)c2ccccc21 [ML67-39, 9,9-dimethyl-10-[2-(1H-tetrazol-5-yl)ethyl]acridine] | > 38.5 | Not better than ML67-33 | 29.2 | 
O=C(O)CCn1c2ccccc2c2cc(I)ccc21 [ML67-14, 3-(3-iodocarbazol-9-yl)propanoic acid] | > 500 | No plateau |  | 
CS(=O)(=O)NC(=O)CCN1c2ccc(Br)cc2C2(CCCCC2)c2cc(Br)ccc21 [ML67-148, 3-{2,7-dibromo-10H-spiro[acridine-9,1′-cyclohexane]-10-yl}-N-methanesulfonyl-propanamide] | 8.6 to 38.5 | Better than ML67-33; Not better than (ML67-142) |  | 
C#Cc1ccc(S(=O)(=O)NC(=O)CCN2c3ccc(Br)cc3C3(CCCCC3)c3cc(Br)ccc32)cc1 [ML67-150, 3-{2,7-dibromo-10H-spiro[acridine-9,1′-cyclohexane]-10-yl}-N-(4-ethynyl-benzenesulfonyl) propanamide] | > 38.5 | Not better than ML67-33 |  | 
O=C(O)CCN1c2ccc(Br)cc2C2(CCCCC2)c2cc(Br)ccc21 [ML67-147, 3-{2,7-dibromo-10H-spiro[acridine-9,1′-cyclohexane]-10-yl}propanoic acid] | > 38.5 | Not better than ML67-33 | 84.1 | 
O=C(O)CCn1c2ccccc2c2ccccc21 [ML67-2, 3-carbazol-9-ylpropanoic acid] |  |  |  | Emax (fold) at 500 μM (K2P2.1 (TREK-1); at 500 μM): 1.3 ± 0.1 at 500 μM fold; effect on K2P2.1 (TREK-1) function / activity (in words) (K2P2.1 (TREK-1)): reduced activity
Brc1ccc2c(c1)C1(CCCCC1)c1cc(Br)ccc1N2CCc1nnn[nH]1 [ML67-145, 2,7-dibromo-10-[2-(1H-1,2,3,4-tetrazol-5-yl)ethyl]-10H-spiro[acridine-9,1′-cyclohexane]] | 8.6 to 38.5 | Better than ML67-33; Not better than (ML67-142) |  | 
c1ccc2c(c1)N(CCc1nnn[nH]1)c1ccccc1C21CCCCC1 [ML67-144, 10-[2-(1H-tetrazol-5-yl)ethyl]spiro [acridine-9,1′-cyclohexane]] | > 38.5 | Not better than ML67-33 | 32.3 | 
Clc1ccc2c(c1)C1(CCCCC1)c1cccc(Cl)c1N2CCc1nnn[nH]1 [ML67-143, 2,5-dichloro-10-[2-(1H-tetrazol-5-yl)ethyl]spiro [acridine-9,1′-cyclohexane]] | 8.6 to 38.5 | Better than ML67-33; Not better than (ML67-142) |  | 
O=C(O)CCN1c2ccc(Cl)cc2Sc2cc(Cl)ccc21 [ML67-26, 3-(3,7-dichloro-phenothiazin-10-yl)propanoic acid] | ~200 | No plateau |  | 
O=C(O)CCCn1c2ccc(Cl)cc2c2cc(Cl)ccc21 [ML67-15, 4-(3,6-dichlorocarbazol-9-yl) butanoic acid] |  |  |  | Emax (fold) at 200 μM (K2P2.1 (TREK-1); at 200 μM): 4.7 ± 0.9 at 200 μM fold; effect on K2P2.1 (TREK-1) function / activity (in words) (K2P2.1 (TREK-1)): did not significantly improve potency
O=C(O)CCN1c2ccc(Cl)cc2C2(CCCCC2)c2cccc(Cl)c21 [ML67-140, 3-(2,5-dichlorospiro [acridine-9,1′-cyclohexane]-10-yl)propanoic acid] | > 38.5 | Not better than ML67-33 | 57.7 | 
Clc1ccc2c(c1)c1cc(Cl)ccc1n2CCc1nnn[nH]1 [ML67-18, 3,6-dichloro-9-[2-(1H-tetrazol-5-yl)ethyl]carbazole] | 125 |  |  | Emax (fold) (K2P2.1 (TREK-1); fold over basal current, no concentration stated): ~18 fold
Clc1ccc2c(c1)c1cc(Cl)ccc1n2[C@H]1C[C@H](c2nnn[nH]2)C1 [ML67-30, 3,6-dichloro-9-[3-(1H-tetrazol-5-yl)cyclobutyl] carbazole (trans)] | < 125 |  |  | 
O=C(O)CCC(CN1c2ccc(Br)cc2C2(CCCCC2)c2cc(Br)ccc21)C(=O)O (stereo not shown) [ML67-152, 2-{2,7-dibromo-10H-spiro[acridine-9,1′-cyclohexane]-10-ylmethyl} pentanedioic acid] | > 38.5 | No better than ML67-33 | 45 | 
c1ccc2c(c1)Oc1ccccc1N2CCc1nnn[nH]1 [ML67-35, 10-[2-(1H-tetrazol-5-yl)ethyl] phenoxazine] | > 38.5 | Not better than ML67-33 | 17.8 | 

Second part, led by results:

EC50 (TREK-1) [µM] | comments (comparison with ML67-33 / ML67-142, dose-response remark) (TREK-1) | % activity at 50 μM (TREK-1) [%] | SMILES | also measured
> 38.5 |  |  | c1ccc2c(c1)Sc1ccccc1N2CCc1nnn[nH]1 [ML67-36, 10-[2-(1H-tetrazol-5-yl)ethyl] phenothiazine] | 
18.3 |  |  | Clc1ccc2c(c1)C1(CCCC1)c1cc(Cl)ccc1N2CCc1nnn[nH]1 [ML67-138, 2,7-dichloro-10-[2-(1H-tetrazol-5-yl)ethyl]spiro [acridine-9,1′-cyclopentane]] | 
> 38.5 | Not better than ML67-33 | 96 | Brc1ccc2c(c1)Sc1cc(Br)ccc1N2CCc1nnn[nH]1 [ML67-37, 3,7-dibromo-10-[2-(1H-tetrazol-5-yl)ethyl] phenothiazine] | 
 |  | 100 | CC1(C)c2cc(Br)ccc2N(CCc2nnn[nH]2)c2ccc(Br)cc21 [ML67-137, 2,7-dibromo-9,9-dimethyl-10-[2-(1H-tetrazol-5-yl)ethyl]acridine] | Emax (fold) at 100 μM (K2P2.1 (TREK-1); at 100 μM (FIG. 4, 7 legends), marked ** in Table 1, footnote not given): 9.2 ± 1.4** fold; effect on K2P2.1 (TREK-1) function / activity (in words) (K2P2.1 (TREK-1)): did not significantly improve activity; % activity at 10 μM (TREK-1; 10 μM): 80%
> 38.5 | Not better than ML67-33 | 13.4 | Brc1ccc2c3ccc(Br)cc3n(CCc3nnn[nH]3)c2c1 [ML67-34, 2,7-dibromo-9-[2-(1H-tetrazol-5-yl)ethyl]carbazole] | 
> 38.5 | Not better than ML67-33 | 68.8 | Brc1ccc2c(c1)Oc1cc(Br)ccc1N2CCc1nnn[nH]1 [ML67-38, 3,7-dibromo-10-[2-(1H-tetrazol-5-yl)ethyl] phenoxazine] | 
> 38.5 | Not better than ML67-33 | 60.7 | Clc1ccc2c(c1)C1(CCOCC1)c1cc(Cl)ccc1N2CCc1nnn[nH]1 [ML67-139, 2,7-dichloro-10-[2-(1H-yl)ethyl]spiro [acridine-9,4′-oxane]] | 
> 38.5 | Not better than ML67-33 | 25.9 | OCc1ccc2c(c1)C1(CCCCC1)c1cc(Br)ccc1N2CCc1nnn[nH]1 [ML67-146, 2-bromo-10-[2-(1H-1,2,3,4-tetrazol-5-yl)ethyl]-10H-spiro[acridine-9,1′-cyclohexane]-7-ylmethanol] | 
8.6 |  |  | Clc1ccc2c(c1)C1(CCCCC1)c1cc(Cl)ccc1N2CCc1nnn[nH]1 [ML67-142, 2,7-dichloro-10-[2-(1H-tetrazol-5-yl)ethyl]spiro [acridine-9,1′-cyclohexane]] | 
